Data reported in patent US7700786B2, “Pyrazole derivative, intermediate therefor, processes for producing these, and herbicide containing these as active ingredient” (Sagami Chemical Research Center, priority 2001, dated 2010).

Legend:
Echinochloa oryzicola = experiment: Herbicidal efficacy test by pre-emergence treatment under submergence condition; type: in vivo; conditions: 15th day after treatment, ratings of 1 to 5
Excerpt: (§3) A 1/10,000-are pot was filled with paddy field soil, and, after plowing, seeds of Echinochloa oryzicola, Cyperus difformis, Monochoria vaginalis, Scirpus juncoides, Eleocharis acicularis and other annual broadleaf weeds such as Lindernia procumbens, Rotala indica and Elatine triandra were sown. Rice (oryza sativa) seedlings (cultiver “Koshihikari”) at a 2.5-leaf stage were transplanted and kept under a submergence condition. After one day, the wettable powder or emulsifiable concentrate of the compound of the present invention, prepared according to Preparation Example, was diluted and dropped on a water surface at a predetermined dose.

Cyperus difformis = experiment: as above; type: in vivo; conditions: 15th day after treatment, ratings of 1 to 5; note: key: 1 shows no influence; 5 shows complete die
Excerpt: as §3

[1] = test system: annual broadleaf weeds such as Lindernia procumbens, Rotala indica and Elatine triandra; experiment: as above; type: in vivo; conditions: 15th day after treatment, ratings of 1 to 5
Excerpt: as §3

Monochoria vaginalis = experiment: as above; type: in vivo; conditions: 15th day after treatment, ratings of 1 to 5; note: key: 1 shows no influence; 5 shows complete die
Excerpt: as §3

Scirpus juncoides = experiment: as above; type: in vivo; conditions: 15th day after treatment, ratings of 1 to 5
Excerpt: as §3

Eleocharis acicularis = experiment: as above; type: in vivo; conditions: 15th day after treatment, ratings of 1 to 5; note: key: 1 shows no influence; 5 shows complete die
Excerpt: as §3

Amaranthus viridis [2] = experiment: Herbicidal efficacy test by soil treatment before germination under upland field condition; type: in vivo; conditions: dose 1 kg/ha; 21st day after treatment; ratings of 1 to 5; note: key: 1 shows no influence; 5 shows complete die
Excerpt: (§1) A vat having an area of 5×10 cm^2 and a depth of 5 cm was filled with upland field soil, and seeds of Chenopodium album, Echinochloa crus-galli, Amaranthus viridis, Digitaria ciliaris and sweet corn (Zea mays) were sown thereon and covered with soil by a depth of 0.5 cm.

Chenopodium album [3] = experiment: as above; type: in vivo; conditions: dose 1 kg/ha; 21st day after treatment; ratings of 1 to 5
Excerpt: as §1

Digitaria ciliaris = experiment: as above; type: in vivo; conditions: dose 1 kg/ha; 21st day after treatment; ratings of 1 to 5
Excerpt: as §1

Echinochloa crus-galli [4] = experiment: as above; type: in vivo; conditions: dose 1 kg/ha; 21st day after treatment; ratings of 1 to 5
Excerpt: as §1

sweet corn (Zea mays) = experiment: Injury to corn, soil treatment before germination under upland field condition; type: in vivo; conditions: dose 1 kg/ha; 21st day after treatment; ratings of 1 to 5
Excerpt: as §1

Amaranthus viridis [5] = experiment: Herbicidal efficacy test by foliar treatment after germination under upland field condition; type: in vivo; conditions: dose 1 kg/ha, rated 1 to 5 on the 14th day after treatment; note: key: 1 shows no influence; 5 shows complete die
Excerpt: (§2) A vat having an area of 5×10 cm^2 and a depth of 5 cm was filled with upland field soil, and seeds of Chenopodium album, Echinochloa crus-galli, Amaranthus viridis and Abutilon theophrasti were sown thereon and covered with soil by a depth of 0.5 cm. Water was sprayed as required to grow them for 14 days.

Chenopodium album [6] = experiment: as above; type: in vivo; conditions: dose 1 kg/ha, rated 1 to 5 on the 14th day after treatment
Excerpt: as §2

Echinochloa crus-galli [7] = experiment: as above; type: in vivo; conditions: dose 1 kg/ha, rated 1 to 5 on the 14th day after treatment
Excerpt: as §2

Abutilon theophrasti = experiment: as above; type: in vivo; conditions: Dc: Digitaria ciliaris (table footnote; method names Abutilon theophrasti), dose 1 kg/ha, rated 1 to 5 on the 14th day after treatment
[8] = test system: Rice (oryza sativa) seedlings (cultiver Koshihikari); conditions: in vivo
Excerpt: as §3
Throughout, for Herbicidal activity Ca: key: 1 shows no influence; 5 shows complete die.

SMILES | Herbicidal efficacy Eo (Echinochloa oryzicola; dose 0.5 kg/ha) | Herbicidal efficacy Eo (Echinochloa oryzicola; dose 1 kg/ha) | Herbicidal efficacy Cd (Cyperus difformis; dose 0.5 kg/ha) | Herbicidal efficacy Cd (Cyperus difformis; dose 1 kg/ha) | Herbicidal efficacy Blw ([1]; dose 0.5 kg/ha) | Herbicidal efficacy Blw ([1]; dose 1 kg/ha) | Herbicidal efficacy Mv (Monochoria vaginalis; dose 0.5 kg/ha) | Herbicidal efficacy Mv (Monochoria vaginalis; dose 1 kg/ha) | Herbicidal efficacy Sj (Scirpus juncoides; dose 0.5 kg/ha) | Herbicidal efficacy Sj (Scirpus juncoides; dose 1 kg/ha) | Herbicidal efficacy Ea (Eleocharis acicularis; dose 0.5 kg/ha) | Herbicidal efficacy Ea (Eleocharis acicularis; dose 1 kg/ha) | Herbicidal activity Av (Amaranthus viridis [2]) | Herbicidal activity Ca (Chenopodium album [3]) | Herbicidal activity Dc (Digitaria ciliaris) | Herbicidal activity Ec (Echinochloa crus-galli [4]) | Injury Zm (sweet corn (Zea mays)) | Herbicidal activity Av (Amaranthus viridis [5]) | Herbicidal activity Ca (Chenopodium album [6]) | Herbicidal activity Ec (Echinochloa crus-galli [7]) | other results
CCCNC(=O)n1nc(Oc2c(Cl)cc(C(F)(F)F)cc2Cl)cc1C [Compound 3-74] | 5 | 5 | 5 | 5 | 5 | 5 | 5 | 5 | 5 | 5 | 5 | 5 | 5 | 5 | 5 | 4.9 | 1 | 5 | 5 | 4.9 | Herbicidal activity Dc (Abutilon theophrasti): 5; Injury Os [8]: 1.8
Cc1cc(Oc2c(Cl)cc(C(F)(F)F)cc2Cl)nn1C(=O)NCC1CCCO1 (centres unmarked) [Compound 3-183] | 5 | 5 | 5 | 5 | 5 | 5 | 5 | 5 | 5 | 5 | 5 | 5 | 5 | 5 | 4 | 3 | 1 | 5 | 5 | 5 | Herbicidal activity Dc (Abutilon theophrasti): 5; Injury Os [8]: 2
